In PubChem BioAssay AID1344 (Sanford-Burnham Center for Chemical Genomics, 2008):

System: CSM14.1 thapsigargin death, annexin V/PI flow, 24 h
Test: rescue from thapsigargin-induced apoptotic death, late-stage follow-up, orthogonal assay for ER stress death inhibitor project, cell-based, undifferentiated CSM14.1, flow cytometry (AID 1344)
Conditions: at 25 µM; stronger effect = higher value

Structure (SMILES) | survival [%]
COc1ccc(C2CC(=O)C3=C(C2)Nc2ccccc2NC3c2cccc(Oc3ccccc3)c2)cc1OC (stereo unspecified) | 95
COc1ccc(C2CC(=O)C3=C(C2)Nc2ccccc2NC3c2cccc(C(F)(F)F)c2)cc1OC (stereo unspecified) | 95
CSc1ccc(C2Nc3ccccc3NC3=C2C(=O)CC(c2ccccc2)C3)cc1 (stereo unspecified) | 96
COc1ccc(C2CC(=O)C3=C(C2)Nc2ccccc2NC3c2ccccc2C(F)(F)F)cc1OC (stereo unspecified) | 96
COc1ccc(C2CC(=O)C3=C(C2)Nc2ccccc2NC3c2cccc(Br)c2)cc1OC (stereo unspecified) | 96
CC1(C)CC(=O)C2=C(C1)Nc1ccccc1NC2c1ccc(-c2ccccc2)cc1 (stereo unspecified) | 97
O=C1CC(c2ccccc2)CC2=C1C(c1c(F)cccc1Cl)Nc1ccccc1N2 (stereo unspecified) | 96
COc1ccc(C2CC(=O)C3=C(C2)Nc2ccccc2NC3c2cc(C)ccc2C)cc1 (stereo unspecified) | 95
CCOc1cccc(C2Nc3ccccc3NC3=C2C(=O)CC(c2ccc(OC)cc2)C3)c1 (stereo unspecified) | 90
CCOc1cc(C2Nc3ccccc3NC3=C2C(=O)CC(c2ccc(OC)cc2)C3)cc(Cl)c1O (stereo unspecified) | 93
CCCOc1ccc(C2Nc3ccccc3NC3=C2C(=O)CC(c2ccc(OC)c(OC)c2)C3)cc1 (stereo unspecified) | 92
